Patent US10689381B2 (priority 2017, dated 2020)
Like-named read-outs stand apart in the source and are kept apart here.

Experiments:
HCT116/VM46 = assay: cells; format: cell-based, human
Experimental: Compounds were tested for their cell growth inhibition of L1210 (ATCC no. CCL-219, mouse lymphocytic leukemia), HCT116 (ATCC no. CCL-247, human colorectal carcinoma), and HCT116/VM46 (a vinblastine-resistant strain of HCT116) cells in culture. A population of cells (>1×10^6 cells/mL as determined with a hemocytometer) was diluted with Dulbecco's Modified Eagle Medium (DMEM, Gibco) containing 10% fetal bovine serum (FBS, Gibco) to give a final concentration of 30,000 cells/mL. To each well of a 96-well plate (Corning® Costar®) was added 100 μL of the cell media solution with a multichannel pipet. The cultures were incubated at 37° C. in an atmosphere of 5% CO2 and 95% humidified air for 24 hours.
The test compounds were then added to the plate as follows: test compounds were diluted in DMSO to a concentration of 1 mM. 10-Fold serial dilutions in DMSO were next performed on a separate 96-well plate. Fresh culture media (100 μL) was added to each well of cells resulting in 200 μL of medium per well followed by 2 μL of each test agent. Compounds were tested in duplicate (n=2-8 times) at six concentrations between 0-1000 nM or 0-10000 nM. Following the addition of compound, cultures were incubated for an additional 72 hours.
The plates were incubated at 37° C. for 5 minutes (L1210) or 15 min (HCT116 and HCT116/VM46). After the given incubation time, 50 μL of 0.1 N NaOH was added to each well and the absorption at 405 nm was determined using a 96 well plate reader. […]

HCT116 = assay: cells; format: cell-based, human
How it was run: (§1)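 Compound exposure ran 72 h at six concentrations (0–1000 nM or 0–10000 nM, duplicate) on cells plated at 30,000 cells/mL in 10% FBS DMEM. A closing 37 °C incubation took 15 min (HCT116) or 5 min (L1210).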

Tubulin = conditions: for percent (%) displacement of tubulin-bound BODIPY-vinblastine: FIG. 2, competitive ligand 18 μM
Experimental: Control studies were performed with BODIPY-VBL in the absence of a competitive ligand (control 1, maximum FI enhancement) and in the absence of tubulin (control 2, no FI enhancement). Percent (%) BODIPY-VBL displacement was calculated by the formula: (control 1 FI−experiment FI)/(Control 1 FI−Control 2 FI)×100%. Reported values are the average of 5 measurements±SD.

L1210 = assay: cells; format: cell-based, mouse
How it was run: as §1

A549 = assay: cells; format: cell-based, human; conditions: read-out: IC50 A549
Text: (§2) 2001, 98:11737; Kavallaris et al., Brit. J. Cancer. 1999, 80:1020; and Kavallaris et al., J. Clin. Invest. 1997, 100:1282]. As a result, the comparison of cell growth inhibition of candidate drugs against A549 vs A549-T24 has been used to characterize potential resistance due to increased expression of class III β-tubulin [Goncalves et al., Proc. Natl. Acad. Sci. USA. 2001, 98:11737; Kavallaris et al., Brit. J. Cancer. 1999, 80:1020; and Kavallaris et al., J. Clin. Invest. 1997, 100:1282].

A549-T24 = assay: cells; format: cell-based, human
Text: as §2

[1] = table in Background, C20′ substituent X, read-out: IC50, HCT116/VM46
[2] = table in Background, C20′ substituent X, read-out: IC50, HCT116

CCC1C[C@H]2CN(CCc3c([nH]c4ccccc34)[C@@](C(=O)OC)(c3cc4c(cc3OC)N(C)[C@H]3[C@@](O)(C(=O)OC)[C@H](OC(C)=O)[C@]5(CC)C=CCN6CC[C@]43[C@@H]65)C2)C1 (some centres unmarked) [Compound 4, reference compound]
IC50 (HCT116/VM46; [1]): 600 nM | IC50 (HCT116; [2]): 60 nM

CC[C@]1(N=[N+]=[N-])C[C@H]2CN(CCc3c([nH]c4ccccc34)[C@@](C(=O)OC)(c3cc4c(cc3OC)N(C)[C@H]3[C@@](O)(C(=O)OC)[C@H](OC(C)=O)[C@]5(CC)C=CCN6CC[C@]43[C@@H]65)C2)C1 [Compound 5, 20′-azidovinblastine]
IC50 (HCT116/VM46; [1]): 5500 nM | IC50 (HCT116; [2]): 690 nM

CC[C@]1(N)C[C@H]2CN(CCc3c([nH]c4ccccc34)[C@@](C(=O)OC)(c3cc4c(cc3OC)N(C)[C@H]3[C@@](O)(C(=O)OC)[C@H](OC(C)=O)[C@]5(CC)C=CCN6CC[C@]43[C@@H]65)C2)C1 [Compound 6, 20′-aminovinblastine]
IC50 (HCT116/VM46; [1]): > 10000 nM | IC50 (HCT116; [2]): 600 nM

CCC1(NC(=O)c2ccccc2)CC2CN(CCc3c([nH]c4ccccc34)C(C(=O)OC)(c3cc4c(cc3OC)N(C)C3C(O)(C(=O)OC)C(OC(C)=O)C5(CC)C=CCN6CCC43C65)C2)C1 (centres unmarked) [Compound 24]
potency relative to saturated cyclohexyl counterpart Compound 20 (more potent) (HCT116): > 50 fold | IC50 (HCT116; Table 2, read-out: IC50 HCT116): 0.8 nM | potency relative to vinblastine (more potent) (HCT116; vinblastine-sensitive cell lines): > 5 fold | percent (%) displacement of tubulin-bound BODIPY-vinblastine (Tubulin): 72±4% | IC50 (L1210; Table 2): 1.1 nM

CC[C@]1(NC(=O)c2ccc(C)c(C)c2)C[C@H]2CN(CCc3c([nH]c4ccccc34)[C@@](C(=O)OC)(c3cc4c(cc3OC)N(C)[C@H]3[C@@](O)(C(=O)OC)[C@H](OC(C)=O)[C@]5(CC)C=CCN6CC[C@]43[C@@H]65)C2)C1 [Compound 28]
IC50 (A549): 5 nM | IC50 (A549-T24): 2.5 nM | IC50 (HCT116/VM46; Table 2, read-out: IC50 HCT116/VM46): 7.6 nM | IC50 (HCT116/VM46; Table 10, read-out: IC50 (nM), HCT116/VM46): 7.6 nM | IC50 (HCT116/VM46; read-out: IC50 HCT116/VM46): 7.6 nM | IC50 (HCT116; Table 2, read-out: IC50 HCT116): 4.5 nM | IC50 (HCT116; Table 9, read-out: IC50 (nM, HCT116)): 4.5 nM | IC50 (HCT116; Table 10, read-out: IC50 (nM), HCT116): 4.5 nM | IC50 (HCT116; read-out: IC50 HCT116): 4.5 nM | % displacement (Tubulin; Table 9, displacement of tubulin bound BODIPY-vinblastine): 67 ± 8% | IC50 (L1210): 3 nM | IC50 (L1210; Table 2): 3 nM

CC[C@]1(NC(=O)c2ccc(C#N)cc2)C[C@H]2CN(CCc3c([nH]c4ccccc34)[C@@](C(=O)OC)(c3cc4c(cc3OC)N(C)[C@H]3[C@@](O)(C(=O)OC)[C@H](OC(C)=O)[C@]5(CC)C=CCN6CC[C@]43[C@@H]65)C2)C1 [Compound 54]
IC50 (HCT116; Table 2, read-out: IC50 HCT116): 3.1 nM | percent (%) displacement of tubulin-bound BODIPY-vinblastine (Tubulin): 56±5% | IC50 (L1210; Table 2): 4.4 nM

CCC1(NC(=O)c2ccc(NC(C)=O)cc2)CC2CN(CCc3c([nH]c4ccccc34)C(C(=O)OC)(c3cc4c(cc3OC)N(C)C3C(O)(C(=O)OC)C(OC(C)=O)C5(CC)C=CCN6CCC43C65)C2)C1 (centres unmarked) [Compound 58]
IC50 (A549): 0.17 nM | IC50 (A549-T24): 0.13 nM | IC50 (HCT116; Table 2, read-out: IC50 HCT116): 0.8 nM | IC50 (HCT116; read-out: IC50 HCT116): 0.07 nM | IC50 (L1210): 0.06 nM | IC50 (L1210; Table 2): 1.6 nM

CCC1(NC(=O)c2ccc(NC(=O)OC(C)(C)C)cc2)CC2CN(CCc3c([nH]c4ccccc34)C(C(=O)OC)(c3cc4c(cc3OC)N(C)C3C(O)(C(=O)OC)C(OC(C)=O)C5(CC)C=CCN6CCC43C65)C2)C1 (centres unmarked) [Compound 60]
IC50 (A549): 0.19 nM | IC50 (A549-T24): 0.09 nM | IC50 (HCT116; Table 2, read-out: IC50 HCT116): 0.3 nM | IC50 (HCT116; read-out: IC50 HCT116): 0.07 nM | IC50 (L1210): 0.06 nM | IC50 (L1210; Table 2): 0.3 nM

CC[C@]1(NC(=O)c2ccc(NS(C)(=O)=O)cc2)C[C@H]2CN(CCc3c([nH]c4ccccc34)[C@@](C(=O)OC)(c3cc4c(cc3OC)N(C)[C@H]3[C@@](O)(C(=O)OC)[C@H](OC(C)=O)[C@]5(CC)C=CCN6CC[C@]43[C@@H]65)C2)C1 [Compound 61]
IC50 (A549): 0.53 nM | IC50 (A549-T24): 0.26 nM | IC50 (HCT116; Table 2, read-out: IC50 HCT116): 0.3 nM | IC50 (HCT116; read-out: IC50 HCT116): 0.07 nM | IC50 (L1210): 0.06 nM | IC50 (L1210; Table 2): 0.4 nM
